Measurements from patent US6914045B2, “Glycopeptide antibiotics” (Wyeth Holdings Corporation, priority 2001, dated 2005).
≈ marks a conversion by molar mass, not a printed value.

Legend:
[1] = system: Streptococcus pneumoniae (GC 1894); assay: acute lethal infection in mice; type: in vivo; conditions: female CD-1 mice, intraperitoneal challenge, intravenous 30 min. after infection, 7 day survival
Summary of the method: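 Female CD-1 mice (20±2 g) got an intraperitoneal bacterial challenge lethal to untreated controls within 24–48 hr. Compound was dosed intravenously 30 min after infection, five mice per dose. ED50 was calculated from 7-day survival pooled across 3 tests.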

Escherichia coli = assay: in vitro antibacterial evaluation, MIC by broth dilution; type: cell-based; conditions: 18 hours at 35° C.
Summary of the method: (§1)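 Inoculum 5×10^5 CFU/mL; concentrations 64 to 0.06 μg/mL; MIC defined as lowest inhibitory level. Conducted by broth dilution under NCCLS guidelines.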

Streptococcus sp. = assay: as above; type: cell-based; conditions: broth dilution, 18 hours at 35° C.
Summary of the method: as §1

Enterococcus sp. = assay: as above; type: cell-based; conditions: broth dilution, 18 hours at 35° C.
Summary of the method: as §1

Staphylococcus sp. = assay: as above; type: cell-based; conditions: broth dilution, 18 hours at 35° C.
Summary of the method: as §1

CC(c1ccccc1)C1NC(=O)CNC(=O)C(CO)NC(=O)C(C(O)C2CNC(=N)N2C2OC(CO)C(O)C(O)C2O)NC(=O)C(C(O)C2CNC(=N)N2)NC(=O)C(Cc2ccc(OC3OC(CO)C(OC4OC5COC(C6CCCCC6)OC5C(O)C4O)C(O)C3O)cc2)NC1=O (stereo not drawn) [Example 112, Cyclo[glycyl-β-methylphenylalanyl-O-[4-O-[4,6-O-(cyclohexylmethylene)hexopyranosyl]-hexopyranosyl]tyrosyl-3-(2-iminoimidazolidin-4-yl)seryl-3-(3-hexopyranosyl-2-iminoimidazolidin-4-yl)serylseryl]]
median effective dose (ED50), Streptococcus pneumoniae (GC 1894) [1]: 0.02 mg/kg
MIC Escherichia coli (ATCC 25922) (Escherichia coli; strain ATCC 25922): 32 µg/mL (≈ 23 µM)
MIC Escherichia coli (GC 4559) (Escherichia coli; strain GC 4559): >16 µg/mL
MIC Escherichia coli (GC 4560) (Escherichia coli; strain GC 4560): 1 µg/mL (≈ 0.72 µM)
MIC Streptococcus agalactiae (GC 4564) (Streptococcus sp.; Streptococcus agalactiae (GC 4564)): <0.12 µg/mL
MIC Streptococcus pneumoniae (GC 4565) (Streptococcus sp.; Streptococcus pneumoniae (GC 4565)): <0.12 µg/mL
MIC Streptococcus pyogenes (GC 4563) (Streptococcus sp.; Streptococcus pyogenes (GC 4563)): <0.12 µg/mL
MIC Streptococcus pyogenes (ID-3187) (Streptococcus sp.; Streptococcus pyogenes (ID-3187)): 0.5 µg/mL (≈ 0.36 µM)
MIC Streptococcus pyogenes (GC 4563) (Streptococcus sp.; strain GC 4563): <0.12 µg/mL
MIC Streptococcus agalactiae (GC 4564) (Streptococcus sp.; strain GC 4564): <0.12 µg/mL
MIC Streptococcus pneumoniae (GC 4565) (Streptococcus sp.; strain GC 4565): <0.12 µg/mL
MIC Streptococcus pyogenes (ID-3187) (Streptococcus sp.; strain ID-3187): 0.5 µg/mL (≈ 0.36 µM)
MIC Enterococcus avium (GC 4558) (Enterococcus sp.; Enterococcus avium (GC 4558)): 2 µg/mL (≈ 1.44 µM)
MIC Enterococcus faecalis (ATCC 29212) (Enterococcus sp.; Enterococcus faecalis (ATCC 29212)): 2 µg/mL (≈ 1.44 µM)
MIC Enterococcus faecalis (GC 2242) (Enterococcus sp.; Enterococcus faecalis (GC 2242)): 1 to 2 µg/mL
MIC Enterococcus faecalis (GC 2691) (Enterococcus sp.; Enterococcus faecalis (GC 2691)): 2 µg/mL (≈ 1.44 µM)
MIC Enterococcus faecalis (GC 3059) (Enterococcus sp.; Enterococcus faecalis (GC 3059)): 2 µg/mL (≈ 1.44 µM)
MIC Enterococcus faecalis (GC 4552) (Enterococcus sp.; Enterococcus faecalis (GC 4552)): 2 µg/mL (≈ 1.44 µM)
MIC Enterococcus faecalis (GC 4553) (Enterococcus sp.; Enterococcus faecalis (GC 4553)): 2 to 4 µg/mL
MIC Enterococcus faecalis (GC 4554) (Enterococcus sp.; Enterococcus faecalis (GC 4554)): 2 µg/mL (≈ 1.44 µM)
MIC Enterococcus faecalis (GC 6189) (Enterococcus sp.; Enterococcus faecalis (GC 6189)): 2 µg/mL (≈ 1.44 µM)
MIC Enterococcus faecium (GC 2243) (Enterococcus sp.; Enterococcus faecium (GC 2243)): 1 to 2 µg/mL
MIC Enterococcus faecium (GC 4556) (Enterococcus sp.; Enterococcus faecium (GC 4556)): 2 µg/mL (≈ 1.44 µM)
MIC Enterococcus faecium (GC 4557) (Enterococcus sp.; Enterococcus faecium (GC 4557)): 0.5 to 2 µg/mL
MIC Enterococcus faecalis (ATCC 29212) (Enterococcus sp.; strain ATCC 29212): 2 µg/mL (≈ 1.44 µM)
MIC Enterococcus faecalis (GC 2242) (Enterococcus sp.; strain GC 2242): 1 to 2 µg/mL
MIC Enterococcus faecium (GC 2243) (Enterococcus sp.; strain GC 2243): 1 to 2 µg/mL
MIC Enterococcus faecalis (GC 2691) (Enterococcus sp.; strain GC 2691): 2 µg/mL (≈ 1.44 µM)
MIC Enterococcus faecalis (GC 3059) (Enterococcus sp.; strain GC 3059): 2 µg/mL (≈ 1.44 µM)
MIC Enterococcus faecalis (GC 4552) (Enterococcus sp.; strain GC 4552): 2 µg/mL (≈ 1.44 µM)
MIC Enterococcus faecalis (GC 4553) (Enterococcus sp.; strain GC 4553): 2 to 4 µg/mL
MIC Enterococcus faecalis (GC 4554) (Enterococcus sp.; strain GC 4554): 2 µg/mL (≈ 1.44 µM)
MIC Enterococcus faecium (GC 4556) (Enterococcus sp.; strain GC 4556): 2 µg/mL (≈ 1.44 µM)
MIC Enterococcus faecium (GC 4557) (Enterococcus sp.; strain GC 4557): 0.5 to 2 µg/mL
MIC Enterococcus avium (GC 4558) (Enterococcus sp.; strain GC 4558): 2 µg/mL (≈ 1.44 µM)
MIC Enterococcus faecalis (GC 6189) (Enterococcus sp.; strain GC 6189): 2 µg/mL (≈ 1.44 µM)
MIC Coagulase Negative Staphylococcus (GC 4547) (Staphylococcus sp.): 0.5 to 1 µg/mL
MIC Coagulase Negative Staphylococcus (GC 4548) (Staphylococcus sp.): 0.5 to 1 µg/mL
MIC Coagulase Negative Staphylococcus (GC 4549) (Staphylococcus sp.): 0.5 to 1 µg/mL
MIC Coagulase Negative Staphylococcus (GC 4551) (Staphylococcus sp.): 0.5 to 1 µg/mL
MIC Coagulase Negative Staphylococcus (GC 6257) (Staphylococcus sp.): 1 µg/mL (≈ 0.72 µM)
MIC Coagulase Negative Staphylococcus (ID-3941) (Staphylococcus sp.): 0.5 µg/mL (≈ 0.36 µM)
MIC Staphylococcus aureus (ATCC 29213) (Staphylococcus sp.): 1 µg/mL (≈ 0.72 µM)
MIC Staphylococcus aureus (GC 1131) (Staphylococcus sp.): 0.5 to 1 µg/mL
MIC Staphylococcus aureus (GC 4541) (Staphylococcus sp.): 1 µg/mL (≈ 0.72 µM)
MIC Staphylococcus aureus (GC 4542) (Staphylococcus sp.): 1 µg/mL (≈ 0.72 µM)
MIC Staphylococcus aureus (GC 4544) (Staphylococcus sp.): 0.5 to 2 µg/mL
MIC Staphylococcus aureus (GC 4545) (Staphylococcus sp.): 1 to 2 µg/mL
MIC Staphylococcus aureus-SMITH (GC 4543) (Staphylococcus sp.): 0.5 to 1 µg/mL
MIC Staphylococcus haemolyticus (GC 4546) (Staphylococcus sp.): 1 µg/mL (≈ 0.72 µM)
MIC Staphylococcus aureus (GC 1131) (Staphylococcus sp.; inoculum 5×10^5 CFU/mL, strain GC 1131): 0.5 to 1 µg/mL
MIC Staphylococcus aureus (ATCC 29213) (Staphylococcus sp.; strain ATCC 29213): 1 µg/mL (≈ 0.72 µM)
MIC Staphylococcus aureus (GC 4541) (Staphylococcus sp.; strain GC 4541): 1 µg/mL (≈ 0.72 µM)
MIC Staphylococcus aureus (GC 4542) (Staphylococcus sp.; strain GC 4542): 1 µg/mL (≈ 0.72 µM)
MIC Staphylococcus aureus (GC 4544) (Staphylococcus sp.; strain GC 4544): 0.5 to 2 µg/mL
MIC Staphylococcus aureus (GC 4545) (Staphylococcus sp.; strain GC 4545): 1 to 2 µg/mL
MIC Staphylococcus haemolyticus (GC 4546) (Staphylococcus sp.; strain GC 4546): 1 µg/mL (≈ 0.72 µM)
MIC Coagulase Negative Staphylococcus (GC 4547) (Staphylococcus sp.; strain GC 4547): 0.5 to 1 µg/mL
MIC Coagulase Negative Staphylococcus (GC 4548) (Staphylococcus sp.; strain GC 4548): 0.5 to 1 µg/mL
MIC Coagulase Negative Staphylococcus (GC 4549) (Staphylococcus sp.; strain GC 4549): 0.5 to 1 µg/mL
MIC Coagulase Negative Staphylococcus (GC 4551) (Staphylococcus sp.; strain GC 4551): 0.5 to 1 µg/mL
MIC Coagulase Negative Staphylococcus (GC 6257) (Staphylococcus sp.; strain GC 6257): 1 µg/mL (≈ 0.72 µM)
MIC Coagulase Negative Staphylococcus (ID-3941) (Staphylococcus sp.; strain ID-3941): 0.5 µg/mL (≈ 0.36 µM)
MIC Staphylococcus aureus-SMITH (GC 4543) (Staphylococcus sp.; strain SMITH GC 4543): 0.5 to 1 µg/mL
